Experimental data published in PubChem BioAssay AID248 (DTP/NCI, 2004).
Where “and” joins values, the source holds several entries; their conditions need not be identical. Identical values can stand only once. Inconclusive results and toxic doses are left out. Rule as the data show it: active = T/C of 150% or more; inactive = T/C below 125%.

System: L1210 leukemia ip in BDF1 mice, survival T/C
Assay: NCI In Vivo Anticancer Drug Screen. Data for tumor model L1210 Leukemia (intraperitoneal) in B6D2F1 (BDF1) mice
Conditions: endpoint: mean survival time, higher = longer survival
Summary of the method: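 In this screen, tumor-bearing mice given compound are compared to those given vehicle, and their survival values are reported as a treated-to-control quotient.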

[1] = dose: 100.0 mg/kg/injection, schedule: Q04DX003 (ip), vehicle: saline with Tween-80

Measured: T/C

CCN1C=C/C(=C\C=C/c2cc[n+](CC)c3ccccc23)c2ccccc21
inactive: dose: 0.05 mg/kg/injection, schedule: Q01DX Z (ip), vehicle: methylcellulose (MC) 96 % of control | dose: 0.06 mg/kg/injection, schedule: Q01DX Z (ip), vehicle: methylcellulose (MC) 106 % of control and 121 % of control | dose: 0.08 mg/kg/injection, schedule: Q01DX Z (ip), vehicle: methylcellulose (MC) 104 % of control | dose: 0.1 mg/kg/injection, schedule: Q01DX Z (ip), vehicle: methylcellulose (MC) 107 % of control | dose: 0.11 mg/kg/injection, schedule: Q01DX Z (ip), vehicle: methylcellulose (MC) 121 % of control | dose: 0.15 mg/kg/injection, schedule: Q01DX Z (ip), vehicle: methylcellulose (MC) 119 % of control | dose: 0.3 mg/kg/injection, schedule: Q01DX Z (ip), vehicle: methylcellulose (MC) 113 % of control and 120 % of control and 121 % of control | dose: 0.33 mg/kg/injection, schedule: Q01DX009 (ip), vehicle: saline with Tween-80 118 % of control | dose: 0.33 mg/kg/injection, schedule: Q03HX024 (ip), vehicle: saline with Tween-80 109 % of control | dose: 0.4 mg/kg/injection, schedule: Q01DX Z (ip), vehicle: methylcellulose (MC) 112 % of control | dose: 0.44 mg/kg/injection, schedule: Q01DX009 (ip), vehicle: saline with Tween-80 121 % of control | dose: 0.48 mg/kg/injection, schedule: Q01DX009 (ip), vehicle: saline with Tween-80 112 % of control | dose: 0.5 mg/kg/injection, schedule: Q01DX009 (ip), vehicle: saline 101 % of control | dose: 0.5 mg/kg/injection, schedule: Q04DX003 (ip), vehicle: saline sonified 107 % of control | dose: 0.67 mg/kg/injection, schedule: Q01DX001 (ip), vehicle: saline with Tween-80 105 % of control | dose: 0.67 mg/kg/injection, schedule: Q04DX003 (ip), vehicle: saline with Tween-80 105 % of control | dose: 0.7 mg/kg/injection, schedule: Q01DX Z (ip), vehicle: methylcellulose (MC) 96 % of control | dose: 0.74 mg/kg/injection, schedule: Q01DX009 (ip), vehicle: saline with Tween-80 114 % of control and 118 % of control | dose: 1.0 mg/kg/injection, schedule: Q01DX001 (ip), vehicle: saline with Tween-80 105 % of control | dose: 1.0 mg/kg/injection, schedule: Q01DX009 (ip), vehicle: saline 107 % of control | dose: 1.0 mg/kg/injection, schedule: Q01DX Z (ip), vehicle: methylcellulose (MC) 100 % of control | dose: 1.0 mg/kg/injection, schedule: Q04DX003 (ip), vehicle: saline sonified 110 % of control | dose: 1.1 mg/kg/injection, schedule: Q01DX009 (ip), vehicle: saline with Tween-80 105 % of control | dose: 1.5 mg/kg/injection, schedule: Q01DX001 (ip), vehicle: saline with Tween-80 112 % of control | dose: 1.5 mg/kg/injection, schedule: Q01DX Z (ip), vehicle: methylcellulose (MC) 108 % of control | dose: 1.5 mg/kg/injection, schedule: Q04DX003 (ip), vehicle: saline with Tween-80 113 % of control | dose: 2.0 mg/kg/injection, schedule: Q04DX003 (ip), vehicle: saline sonified 118 % of control | dose: 2.2 mg/kg/injection, schedule: Q01DX001 (ip), vehicle: saline with Tween-80 110 % of control | dose: 2.2 mg/kg/injection, schedule: Q04DX003 (ip), vehicle: saline with Tween-80 98 % of control | dose: 3.3 mg/kg/injection, schedule: Q01DX001 (ip), vehicle: saline with Tween-80 100 % of control and 88 % of control | dose: 7.4 mg/kg/injection, schedule: Q01DX001 (ip), vehicle: saline with Tween-80 105 % of control | dose: 67.0 micrograms/kg/injection, schedule: Q03HX024 (ip), vehicle: saline with Tween-80 102 % of control | dose: 100.0 micrograms/kg/injection, schedule: Q03HX024 (ip), vehicle: saline with Tween-80 101 % of control | dose: 150.0 micrograms/kg/injection, schedule: Q03HX024 (ip), vehicle: saline with Tween-80 104 % of control | dose: 220.0 micrograms/kg/injection, schedule: Q03HX024 (ip), vehicle: saline with Tween-80 97 % of control | dose: 330.0 micrograms/kg/injection, schedule: Q03HX024 (ip), vehicle: saline with Tween-80 102 % of control

COC(=O)CC[S+](C)CCC(=O)OC
inactive: dose: 7.5 mg/kg/injection, schedule: Q04DX003 (ip), vehicle: saline 100 % of control | dose: 15.0 mg/kg/injection, schedule: Q04DX003 (ip), vehicle: saline 107 % of control | dose: 30.0 mg/kg/injection, schedule: Q04DX003 (ip), vehicle: saline 105 % of control

O=C1CCCCCCCS(=O)(=O)C1
inactive: dose: 75.0 mg/kg/injection, schedule: Q01DX001 (ip), vehicle: carboxymethylcellulose (CMC) 112 % of control | dose: 150.0 mg/kg/injection, schedule: Q01DX001 (ip), vehicle: carboxymethylcellulose (CMC) 104 % of control

OC1CCCCC1Cc1ccccc1 (stereo unspecified)
inactive: dose: 100.0 mg/kg/injection, schedule: Q04DX003 (ip), vehicle: gum acacia 102 % of control | dose: 200.0 mg/kg/injection, schedule: Q04DX003 (ip), vehicle: gum acacia 96 % of control | dose: 400.0 mg/kg/injection, schedule: Q04DX003 (ip), vehicle: gum acacia 98 % of control

Nc1c(N=O)c(=O)n(Cc2ccccc2)c(=O)n1Cc1ccccc1
inactive: dose: 50.0 mg/kg/injection, schedule: Q01DX001 (ip), vehicle: carboxymethylcellulose (CMC) 103 % of control | dose: 100.0 mg/kg/injection, schedule: Q01DX001 (ip), vehicle: carboxymethylcellulose (CMC) 105 % of control | dose: 200.0 mg/kg/injection, schedule: Q01DX001 (ip), vehicle: carboxymethylcellulose (CMC) 97 % of control | dose: 400.0 mg/kg/injection, schedule: Q01DX001 (ip), vehicle: carboxymethylcellulose (CMC) 100 % of control

O=C1c2cc([N+](=O)[O-])ccc2-c2cc(Cl)c(Cl)cc21
inactive: dose: 200.0 mg/kg/injection, schedule: Q04DX003 (ip), vehicle: Klucel (hydroxypropylcellulose) (HPC) 91 % of control | dose: 400.0 mg/kg/injection, schedule: Q04DX003 (ip), vehicle: Klucel (hydroxypropylcellulose) (HPC) 94 % of control

COc1ccc(C2C3CCC(C3)C2N)cc1 (stereo unspecified)
inactive: dose: 5.0 mg/kg/injection, schedule: Q04DX003 (ip), vehicle: saline 100 % of control | dose: 10.0 mg/kg/injection, schedule: Q01DX009 (ip), vehicle: saline with Tween-80 93 % of control | dose: 10.0 mg/kg/injection, schedule: Q04DX003 (ip), vehicle: saline 100 % of control and 97 % of control | dose: 20.0 mg/kg/injection, schedule: Q01DX009 (ip), vehicle: saline with Tween-80 91 % of control | dose: 20.0 mg/kg/injection, schedule: Q04DX003 (ip), vehicle: saline 97 % of control | dose: 25.0 mg/kg/injection, schedule: Q01DX009 (ip), vehicle: saline with Tween-80 90 % of control | dose: 40.0 mg/kg/injection, schedule: Q04DX003 (ip), vehicle: saline 96 % of control | dose: 50.0 mg/kg/injection, schedule: Q01DX009 (ip), vehicle: saline with Tween-80 95 % of control | dose: 100.0 mg/kg/injection, schedule: Q01DX009 (ip), vehicle: saline with Tween-80 88 % of control | [1] 100 % of control

S=C([S][Sb]([c]1ccccc1)[c]1ccccc1)N(c1ccccc1)c1ccccc1
inactive: dose: 5.0 mg/kg/injection, schedule: Q01DX001 (ip), vehicle: other 102 % of control | dose: 10.0 mg/kg/injection, schedule: Q01DX001 (ip), vehicle: other 102 % of control | dose: 20.0 mg/kg/injection, schedule: Q01DX001 (ip), vehicle: other 98 % of control | dose: 40.0 mg/kg/injection, schedule: Q01DX001 (ip), vehicle: other 107 % of control

CN1CCN(CCSC(=O)N2c3ccccc3Sc3ccc(Cl)cc32)CC1
inactive: dose: 75.0 mg/kg/injection, schedule: Q01DX001 (ip), vehicle: saline 94 % of control

CC1(C)CC([NH-])CC(C)(C)N1O.CC1(C)CC([NH-])CC(C)(C)N1O.[Cl][Pd][Cl]
inactive: dose: 100.0 mg/kg/injection, schedule: Q04DX003 (ip), vehicle: saline 94 % of control | dose: 200.0 mg/kg/injection, schedule: Q04DX003 (ip), vehicle: saline 105 % of control | dose: 400.0 mg/kg/injection, schedule: Q04DX003 (ip), vehicle: saline 90 % of control

COCOc1ccc(-c2ccc(O)cc2)cc1
inactive: [1] 91 % of control | dose: 200.0 mg/kg/injection, schedule: Q04DX003 (ip), vehicle: saline with Tween-80 91 % of control | dose: 400.0 mg/kg/injection, schedule: Q04DX003 (ip), vehicle: saline with Tween-80 94 % of control
